From US11066389B2, “Process for the manufacturing of medicaments” (Genentech, Inc., priority 2014, dated 2021)

Columns and labels:
Type in all cases: physicochemical
[1] = pKa determination of the free base (salt screen)
Description: A salt screen was conducted to determine if a suitable salt form could be discovered. The pKa of the free base was determined to be less than 2, which limited the range of possible salt coformers. In addition, salts derived from (S)-1-(1-(4-chloro-3-fluorophenyl)-2-hydroxyethyl)-4-(2-((1-methyl-1H-pyrazol-5-yl)amino)pyrimidin-4-yl)pyridin-2(1H)-one free base would have a pHmax less than 2 and would be expected to disproportionate in water. Thus, it was not clear that a crystalline salt could be prepared or that any salt would have acceptable exposure in vivo (an aqueous environment). […] Eventually crystalline salts were obtained from 1,5-naphthalenedisulfonic acid, p-toluenesulfonic acid and benzenesulfonic acid.

[2] = Solid-form stability against disproportionation in the presence of water; conditions: compared to the tosylate and naphthalenesulfonic acid salt forms
[3] = Hygroscopicity, automated vapor sorption (DVS); conditions: salt form; lower than the tosylate and 1,5-naphthalenedisulfonic acid salt forms; vapor sorption at 25° C., 5 to 95% RH
Description: Automated vapor sorption data were collected on a TA Instruments Q5000SA vapor sorption analyzer. NaCl and PVP were used as calibration standards. Samples were not dried prior to analysis. Adsorption and desorption data were collected at 25° C. over a range from 5 to 95% RH at 10% RH increments under a nitrogen purge. Samples were held at the corresponding RH for 1 hour prior to moving to the next RH range. Data were not corrected for the initial moisture content of the samples.

Compound | pKa [1] | pKa of the free base [1] | stability [2] | hygroscopicity [3]
Cn1nccc1Nc1nccc(-c2ccn([C@H](CO)c3ccc(Cl)c(F)c3)c(=O)c2)n1 [VIII, (S)-1-(1-(4-chloro-3-fluorophenyl)-2-hydroxyethyl)-4-(2-(1-methyl-1H-pyrazol-5-ylamino)pyrimidin-4-yl)pyridin-2(1H)-one] | < 2 | less than 1.8 | – | –
Cn1nccc1Nc1nccc(-c2ccn([C@H](CO)c3ccc(Cl)c(F)c3)c(=O)c2)n1.O=S(=O)(O)c1ccccc1 [besylate salt, (S)-1-(1-(4-Chloro-3-fluorophenyl)-2-hydroxyethyl)-4-(2-((1-methyl-1H-pyrazol-5-yl)amino)pyrimidin-4-yl)pyridin-2(1H)-one, Benzenesulfonate Salt] | – | – | enhanced stability | non-hygroscopicity
